We go through three molecules from US4605658A (priority 1983, dated 1986).

In brackets after ≈: the same amount, converted by molar mass. Like-named read-outs stand apart in the source and are kept apart here.

One data set can be described thus: Solubility. The format is physicochemical.
The test system of data set [1] is DNA and RNA viruses. Description: Antiviral activity against DNA and RNA viruses (general statements). It counts as cell-based.
The next data set deals with Sindbis virus. Description: microbe, parasite or virus in culture. The format is cell-based. Particulars: Vero.
Data set [2] in a line: Test 3: cytotoxicity, HeLa cells. The format is cell-based. The following applies: human, Table 4, read-out: Minimum cytotoxic concentration (MCC). The procedure:
(§1) A further test was effected to determine the cytotoxicity of the chemical compounds of Table 1. Cell cultures were incubated with varying concentrations of the esters, during a time period equal to the period required for measuring antiviral activity. The compounds (S)-DHPA and (RS)-DHPA were used for comparative purposes. For each compound, the minimum cytotoxic concentration (MCC) was measured, that is the concentration required to cause a microscopically detectable alteration of normal cell morphology, when incubated with the cells in this way.

The next data set deals with Polio 1. Description: microbe, parasite or virus in culture. The format is cell-based. The following applies: HeLa, read-out: MIC50.
Data set [3] is described as follows: Test 3: cytotoxicity, Vero cells. It counts as cell-based, green monkey. The following applies: monkey, Table 4, read-out: Minimum cytotoxic concentration (MCC). The method, then:
as §1

The test system of a further data set is Parainfluenza-virus-3. The data set is described as follows: microbe, parasite or virus in culture. The following applies: Vero. The format is cell-based.
Data set [4] can be described thus: Test 3: cytotoxicity, PRK cells. The format is cell-based. Particulars: rabbit, Table 4, read-out: Minimum cytotoxic concentration (MCC). The method, then:
as §1

The test system of the next data set is Vaccinia. The data set is described as follows: microbe, parasite or virus in culture. It counts as cell-based. The following applies: Orthopoxvirus vaccinia, PRK, read-out: MIC50.
In another data set the test system is Parainfluenza. The data set is described as follows: microbe, parasite or virus in culture. It counts as cell-based. Particulars: Vero B; read-out: MIC50.
The test system of another data set is Measles. Description: microbe, parasite or virus in culture. It counts as cell-based. The following applies: Measles morbillivirus, Vero; read-out: MIC50.
The subject of a further data set is Measles virus. Description: microbe, parasite or virus in culture. The format is cell-based. Particulars: Measles morbillivirus, Vero.
The test system of a further data set is Coxsackie virus-B4. Description: Test 2: antiviral activity, Coxsackie virus-B4 in HeLa cells. It counts as cell-based. Particulars: Table 3.
Another data set deals with Vesicular stomatitis. The data set is described as follows: microbe, parasite or virus in culture. The format is cell-based. Particulars: PRK, read-out: MIC50.
The test system of another data set is Sindbis. The data set is described as follows: Test 1: inhibition of virus cytopathic effect, Sindbis in Vero B cells. It counts as cell-based. Particulars: Table 2, read-out: MIC50. The method, then:
The antiviral properties of the esters prepared in Example 1 was explored in a variety of cell cultures and with a variety of DNA and RNA viruses such as listed in Table 2. The cells of each cell culture were inoculated with a certain virus in a dose of about 100 CCID50, that is about 100 times the dose needed to infect 50 percent of the cells. One hour after inoculation, the celss were washed with Eagle's nutrient medium and an ester of Example 1 was added in a dose varying from zero to 300 ug/ml and sometimes to more than 400 ug/ml. The compound (S)-DHPA was used in a comparative experiment. […] The cytopathic effect itself was measured in control experiments with virus-infected cell cultures without any added chemical compound and recorded as soon as it reached completion (Method of L. J. Rosenthal and I. L. Schechmaister in "Tissue Culture", p. 510, Academic Press, New York, 1973).
The results are shown in Table 2, wherein the abbreviations have the following meaning: PRK: primary culture of rabbit kidney cells; Vero: continuous line of green monkey kidney cells, HeLa: epithelial line of human cervical carcinoma cells.
In general terms: Cytopathic effects are the visible damage that an infection or toxin causes in cultured cells.

The next data set deals with Herpes simplex 1 (KOS). The data set is described as follows: Test 1: inhibition of virus cytopathic effect, herpes simplex 1 (KOS) in PRK cells. The format is cell-based. The following applies: Table 2, read-out: MIC50.
In another data set the test system is Reo virus-1. The data set is described as follows: Test 2: antiviral activity, reo virus-1 in Vero cells. The format is cell-based. Particulars: Reo virus-1, Vero cells; Table 3.
For data set [5], the system named is Vesicular stomatitis virus. It counts as cell-based. The following applies: ratio of MCC (PRK cells) to MIC50 (vesicular stomatitis virus).
For a further data set, the system named is Reovirus 1. The data set is described as follows: Test 1: inhibition of virus cytopathic effect, reovirus 1 in Vero B cells. It counts as cell-based. The following applies: Mammalian orthoreovirus 1; Reovirus 1, Vero B cells; Table 2; read-out: MIC50.
In data set [6] the test system is DNA and RNA viruses. The following applies: known DHPA and related derivatives; cited from earlier work.
Another data set deals with living cells. Particulars: known DHPA; cited from earlier work.

In the case of `Nc1ncnc2c1ncn2CC(O)C(=O)O` (stereo not drawn) [3-(adenin-9-yl)-2-hydroxypropanoic acid], the “solubility (in words)” value in the data set “Solubility” is on record as “poorly soluble in water”. Further, in the data set with DNA and RNA viruses [1], the “antiviral activity (in words)” value was “inactivity”.
Turning to `COC(=O)C(O)Cn1cnc2c(N)ncnc21` (racemic) [Compound 1, methylester of 3-(adenin-9-yl)-2-hydroxypropanoic acid], the EC50 in the data set on Sindbis virus is more than 400 µg/mL; in the data set with Polio 1, more than 400 µg/mL; with Parainfluenza-virus-3, 20 µg/mL (≈ 84.3 µM); in the data set on Vaccinia, 7 µg/mL (≈ 29.5 µM); in the data set with Parainfluenza it was 100 µg/mL (≈ 422 µM); in the data set with Measles, 40 µg/mL (≈ 169 µM). The EC50 was 40 µg/mL (≈ 169 µM) in the data set on Measles virus; more than 400 µg/mL in the data set with Coxsackie virus-B4; 3 µg/mL (≈ 12.6 µM) with Vesicular stomatitis; more than 400 µg/mL in the data set on Sindbis; more than 400 µg/mL in the data set with Herpes simplex 1 (KOS); 200 µg/mL (≈ 843 µM) in the data set with Reo virus-1. Moreover, the EC50 in the data set with Reovirus 1 came to 300 µg/mL (≈ 1260 µM). In addition, the MCC in data set [2], in data set [3] and in data set [4] was more than 400 µg/mL in each case. Besides, the antiviral index entry in data set [5] is on record as “higher than 100 -fold”.
Consider `Nc1ncnc2c1ncn2CC(O)CO` (stereo not drawn) [DHPA, 9-(2,3-dihydroxypropyl)adenine], for which, in the data set with DNA and RNA viruses [6], the “antiviral activity (in words)” value was “broad-spectrum antiviral activity in (S) or (RS) form”. Also, the “acute toxicity for living cells (in words)” value in the data set with living cells is listed as “low acute toxicity for living cells”.
